Results published in ChEMBL document CHEMBL5604063, “ASAP - DENV-2 NS2B-NS3 protease fluorescence dose response” (2024).
“And” between values parts separate entries of the source, which are not always exact repeats. Equal values may be shown once.

Legend:
Genome polyprotein [1] = biological target: T1, Genome polyprotein (dengue virus type 2, UniProt P29990); format: functional, Thailand/16681/1984
Genome polyprotein [2] = biological target: T1, Genome polyprotein; format: functional, Thailand/16681/1984; remark: listed apart in the source

T1 sequence (P29990 1346-1475 limits assumed): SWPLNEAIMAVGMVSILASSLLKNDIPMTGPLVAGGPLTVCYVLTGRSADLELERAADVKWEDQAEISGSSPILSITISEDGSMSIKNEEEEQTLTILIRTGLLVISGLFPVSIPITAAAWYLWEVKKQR
T1 sequence (P29990 1476-2093 limits assumed): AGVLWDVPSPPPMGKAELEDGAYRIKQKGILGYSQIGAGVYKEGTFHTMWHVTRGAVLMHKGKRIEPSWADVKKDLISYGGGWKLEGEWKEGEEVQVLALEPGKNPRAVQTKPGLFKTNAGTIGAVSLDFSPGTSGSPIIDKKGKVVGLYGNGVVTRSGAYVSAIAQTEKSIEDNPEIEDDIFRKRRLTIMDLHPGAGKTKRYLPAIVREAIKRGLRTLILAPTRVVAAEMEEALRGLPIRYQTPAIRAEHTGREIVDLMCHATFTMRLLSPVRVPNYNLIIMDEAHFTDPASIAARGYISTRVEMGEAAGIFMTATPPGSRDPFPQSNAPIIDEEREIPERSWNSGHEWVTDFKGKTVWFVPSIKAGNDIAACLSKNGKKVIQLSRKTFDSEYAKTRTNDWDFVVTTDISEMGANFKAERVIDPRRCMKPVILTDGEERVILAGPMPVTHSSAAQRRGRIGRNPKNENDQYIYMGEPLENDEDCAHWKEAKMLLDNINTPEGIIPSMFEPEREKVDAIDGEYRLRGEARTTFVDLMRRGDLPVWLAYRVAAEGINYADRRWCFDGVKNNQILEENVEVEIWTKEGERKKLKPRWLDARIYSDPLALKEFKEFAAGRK

Structure (SMILES) | IC50 (Genome polyprotein [1]) | IC50 (Genome polyprotein [2])
N[C@H]1Cc2ccc(NC(=O)c3cc(Cl)cc(NC(=O)OCc4ccccc4)c3)cc2C1 | 33.3 µM | 64.2 µM
C[C@H]1C[C@@H](C(=O)Nc2cccc(CN)c2)CC(=O)N1 | > 99.5 µM | > 100 µM
N#Cc1ccc(Cl)c(C(=O)Nc2ccc3c(c2)CNC3)c1 | > 99.5 µM | > 100 µM
CCc1nc(C)c(C(=O)Nc2cccc(-c3nnn[nH]3)c2)s1 | > 99.5 µM | > 100 µM
N#CCc1cc(NC(=O)c2cc(F)cc3[nH]ncc23)cc2c1CNC2 | 23.5 µM | 38.3 µM and 18.9 µM
O=C(Nc1cc(Cl)cc(-c2cnn3ccc(C(=O)O)cc23)c1)OCc1ccccc1 | > 99.5 µM | > 100 µM
Cn1nc([C@@H]2CCCN2)nc1NC(=O)c1cc(Cl)cc(NC(=O)OCc2ccccc2)c1 | > 99.5 µM | > 100 µM
NCc1cccc(NC(=O)c2cc(Cl)ccc2OC2CCCC2)c1 | > 99.5 µM | > 100 µM
CCc1cccc(-c2nc3c(C(=O)Nc4ccc5c(c4)CNC5)cc(F)cc3[nH]2)c1 | 14.5 µM and 7.53 µM | 88.9 µM and > 100 µM
O=C1Cc2c(cccc2C(=O)NCC2(F)CC3(CCOCC3)C2)N1 | > 99.5 µM | > 100 µM
CS(=O)(=O)NC(=O)c1cc(CN)cc([C@@H]2C[C@H]2c2cc(Cl)cc(NC(=O)OCc3ccccc3)c2)c1 | > 99.5 µM | > 100 µM
Cc1c(C(=O)Nc2cc(C(=O)N[C@H]3CCNC3=O)ccn2)cc(C2CC2)n1C | > 99.5 µM | > 100 µM
CC(C)OC(=O)Nc1cc(Cl)cc(C(=O)Nc2cccc(CN)c2)c1 | > 99.5 µM | > 100 µM
O=C(O)c1ccc(-c2cc(NC(=O)c3cc(F)cc4[nH]ncc34)cc3c2CNC3)cc1 | 75.4 µM | 54.7 µM and 75 µM
Cc1ccc(-c2nc3c(C(=O)Nc4ccc5c(c4)CNC5)cc(F)cc3[nH]2)cc1 | 16.4 µM and 39.9 µM | 70.2 µM
Cc1ccc(C)n1-c1ccc(Cl)cc1C(=O)Nc1ccc2c(c1)CNC2 | > 99.5 µM | > 100 µM
O=C1Cc2c(cccc2C(=O)N[C@H]2CCc3cnccc32)N1 | > 99.5 µM | > 100 µM
CCCCNC(=O)[C@H](Nc1ccc2c(c1)CNC2)c1cc(Cl)cc(C2CC2)c1 | > 99.5 µM | > 100 µM
CN1C(=O)C[C@H](C(=O)Nc2cccc(CN)c2)[C@H]1c1ccc(Cl)c(Cl)c1 | > 99.5 µM | > 100 µM
O=C(Nc1ccc2c(c1)CNC2)c1ccc2ccncc2c1 | > 99.5 µM | > 100 µM
Cc1c(C(=O)Nc2ccc3c(c2)CCC(=O)N3CC2CCC2)cc(C2CC2)n1C | > 99.5 µM | > 100 µM
Cc1c(C(=O)Nc2cc(C(=O)N(C)C)ccn2)cc(C2CC2)n1C | > 99.5 µM | > 100 µM
C[C@@]1(CNC(=O)c2cc(Cl)cc(NC(=O)OCc3ccccc3)c2)CNCCOC1 | > 99.5 µM | > 100 µM
Cc1c(C(=O)Nc2cccc(Cn3ccccc3=O)c2)cc(C2CC2)n1C | > 99.5 µM | > 100 µM
CN(C)Cc1csc(NC(=O)c2cc(Cl)cc(NC(=O)OCc3ccccc3)c2)n1 | > 99.5 µM | > 100 µM
CCC1(NC(=O)Cn2ccnc(N3CC[C@@H](CO)C3)c2=O)CC1 | > 99.5 µM | > 100 µM
O=C(Nc1cc([C@H]2CCOC2)ccn1)c1cc(Cl)cc2c1CCC2 | > 99.5 µM | > 100 µM
NCCCc1ccnc(NC(=O)c2cnn3c2CCC3)c1 | > 99.5 µM | > 100 µM
CNC(=O)[C@H](Nc1cc(CN)cc(C(=O)O)c1)c1cc(Cl)cc(NC(=O)OCc2ccccc2)c1 | > 99.5 µM | > 100 µM
Cc1c(C(=O)Nc2cc(C(N)=O)c3ccccc3n2)cc(C2CC2)n1C | > 99.5 µM | > 100 µM
